In brackets after ≈: the same amount, converted by molar mass.
What was measured:
Type in all cases: functional
P388 = experiment: Effective dose against the p-388 mouse leukemia cell line; conditions: read-out: ED50 (the source's name)
CCRF-CEM = experiment: Effective dose for inhibition of proliferation of the leukemia cell line CCRF-CEM; conditions: Homo sapiens, read-out: ED50 (the source's name)
HL-60 = experiment: Effective dose for inhibition of proliferation of the leukemia cell line HL-60(TB); conditions: Homo sapiens, read-out: ED50 (the source's name)
NCI-H226 = experiment: Effective dose for inhibition of proliferation of the lung cancer cell line NCI-H226; conditions: Homo sapiens, read-out: ED50 (the source's name)

SMILES | EC50 (P388) [µg/mL] | EC50 (CCRF-CEM) [µg/mL] | EC50 (HL-60) [µg/mL] | EC50 (NCI-H226) [µg/mL]
O=C1N[C@H]2[C@H](O)CCC[C@@H]2c2cc3c(cc21)OCO3 | 40.1 (≈ 153 µM) |  |  | 
O=C1N[C@H]2C[C@H](O)[C@@H](O)C[C@@H]2c2cc3c(cc21)OCO3 | 0.45 (≈ 1.62 µM) | 0.55 (≈ 1.98 µM) | 0.89 (≈ 3.21 µM) | 0.65 (≈ 2.34 µM)

From ChEMBL document CHEMBL1133998, “Studies directed towards the refinement of the pancratistatin cytotoxic pharmacophore” (2001)
